Measurements as given in patent US20160235752A1, “COMPOSITIONS, METHODS OF USE, AND METHODS OF TREATMENT” (THE UNIVERSITY OF NEW ORLEANS, priority 2013, published 2016).
In brackets after ≈: the same amount, converted by molar mass.

Experiments:
[1] = tested on: Candida albicans (ATCC no. 10231); assay: MIC determination by broth microdilution (NCCLS), visual scoring; format: cell-based; settings: for MIC80: Candida albicans, ATCC10231, read-out: MIC80 C. albicans
Procedure, shortened: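 NCCLS broth microdilution in RPMI 1640 with 10 mM HEPES, final compound 0.5–128 μg/mL, DMSO ≤1%. Inoculum from 0.5 McFarland stock diluted 1:50; incubated 35 °C for 48–72 h. MIC scored visually as lowest concentration giving ~80% growth reduction versus drug-free wells.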

[2] = tested on: Candida glabrata (ATCC no. 48435); assay: as above; format: cell-based; settings: for MIC80: Nakaseomyces glabratus, ATCC48435, read-out: MIC80 C. glabrata
[3] = tested on: Vero cells (African green monkey kidney cells-ATCC no. CRL-1651); assay: In vitro mammalian cell toxicity (Promega CellTiter 96, MTT); format: cell-based; settings: cells from the kidney origin; 24 hours; concentration not given
Protocol: Finally, in vitro mammalian cell toxicity studies were done using both mammalian kidney cells and human liver cells (Vero (kidney) cells-ATCC no. CRL-1651 and Hep G2 (liver) ATCC no. HB-8065) on all derivatives that had antifungal activity of less than 8 μg/mL. Cytotoxicity studies were performed in accordance with Promega CellTiter 96 Non-RadioactivCell Proliferation Assay (cat # G4000). The data is presented as the percent cells that remain viable, compared to the negative control, which was set to 100%. BA22, BA23 and BA73 had minimal toxicity in the kidney cells, with over 80% cells viable even at a concentration 10 times higher than the MIC (Table 7).
Cytotoxicity was determined using non-cancerous Vero cells (African green monkey kidney cells-ATCC no. CRL-1651) and Hep G2 (liver) (ATCC no. HB-8065) cells in accordance with Promega CellTiter 96 Non-RadioactivCell Proliferation Assay (cat # G4000). Cells were grown for 24 h at 37° C. and 5% CO2 in a 96-well culture plate. All compounds with MIC≦8 μg/ml were further screened in the MTT assays using both cell types. Compounds that fit these criteria were diluted in media to the testing dilution amounts: the MIC concentration (shown in respective tables; 5×MIC; 10×MIC and 100×MIC. The media used to grow cells was DMEM containing 10% FBS and 2%. Cells were incubated in the presence of the compounds for 24 hours at 37° C. and 5% CO2. Tetrazolium dye solution was added to each well and allowed to incubate for 1-4 h. Stabilization/Stop solution was added and allowed to sit at room temperature for 1 h. Formazan product was scored spectrophotometrically with an automatic plate reader set at 570 nm. 0.1% saponin was used as a positive control. 1% DMSO controls were also used since the compounds were reconstituted in DMSO.

[4] = tested on: C. albicans strain SC5314; assay: Testing for respiratory deficiencies: growth in YPD, YPG, YPE; format: cell-based, Candida albicans
Protocol: (§1) FIGS. 2A and 2B illustrates BA22 activity is enhanced when Candida growth depends upon non-fermentable carbon sources. C. albicans strain SC5314 (FIG. 2A) or C. glabrata strain CS117.93 (FIG. 2B) were grown in medium with 2% glucose (YPD), 3% glycerol (YPG) or 3% ethanol (YPE) at pH 6.5, in dose response experiments with BA22. After 24 hours incubation at 30° C., growth was measured by OD600nm. Growth at each concentration of BA22 is shown as % growth relative to the minus drug (DMSO) control. Data shown is representative of two repeat experiments.
(§2) Considering the significant growth inhibition and lack of overall lack of cytotoxicity of many of the phenylhydrazones, we further explored potential mechanisms of action using the compound BA22 as a representative drug. We initially observed that in the presence of BA22, C. albicans formed small colonies similar to respiration deficient ‘petite’ mutants previously described for Saccharomyces. […] We therefore determined if BA22 affected the ability of C. albicans or C. glabrata to use glycerol or ethanol as carbon sources. […]
(§3) Respiratory deficiencies were examined using YPD (2% glucose), YPE (3% ethanol), or YPG (3% glycerol)^31. […] After 24 and 48 hours incubation at 30° C., growth was quantified by measuring OD600nm using a BioTek plate reader. Growth at each BA concentration was then expressed as % growth vs. the DMSO control of the same medium.

[5] = tested on: C. glabrata strain CS117.93; assay: as above; format: cell-based, Candida glabrata
Protocol: as §1, §2, §3

C. albicans = assay: Colony formation on agar plates enriched with BA22; format: cell-based, Candida albicans; settings: agar plates enriched with a range of BA22 concentrations; data not shown
Excerpt: Considering the significant growth inhibition and lack of overall lack of cytotoxicity of many of the phenylhydrazones, we further explored potential mechanisms of action using the compound BA22 as a representative drug. We initially observed that in the presence of BA22, C. albicans formed small colonies similar to respiration deficient ‘petite’ mutants previously described for Saccharomyces. […] This phenotype somewhat resembles that of respiration deficient ‘petite’ mutants, which are unable to utilize non-fermentable carbon sources such as glycerol and ethanol^30. We therefore determined if BA22 affected the ability of C. albicans or C. glabrata to use glycerol or ethanol as carbon sources. The concentrations of BA22 required to inhibit the growth of either fungi were much lower when glycerol or ethanol is provided as a carbon source versus glucose (FIG. 2). […] Growth inhibition occurred at higher BA22 concentrations in glucose medium, possibly indicating an additional secondary mechanism.

[6] = tested on: Candida albicans (ATCC no. 10231) and Candida glabrata (ATCC no 48435); assay: Antifungal activity, text statements that do not say which fungus; format: cell-based
Protocol: The antifungal activity of the 2,4,6-pyrimidinetrione analogs shown in Schemes 2-6 were evaluated in vitro using Candida albicans (ATCC no. 10231) and Candida glabrata (ATCC no 48435). All assays were done in accordance with NCCLS reference documents^29. The results of these screenings are summarized in Tables 1-9 as the minimal inhibitory concentrations that inhibited more than 80% fungal growth as compared to the positive controls in 1% DMSO and RPMI media. All MIC screens were done using a visual scoring method as opposed to spectroscopic methods of analysis, due to the physical properties of many of the compounds altering their absorbance spectra relative to the positive, negative and drug controls.
None of the compounds tested over the course of these studies were soluble in water and DMSO was used to dilute each compound tested. Master stock concentrations of all tested compounds were prepared to ensure that the maximum final concentration of DMSO was 1% or less. Subsequent 2-fold serial dilutions were made using sterile water to a final concentration of 1280-5.00 μg/ml. A final 10-fold dilution of each drug was made by aliquotting 0.1 mL of each drug dilution into 0.9 mL of fungal suspension in RPMI 1640 media with 10 mM HEPES buffer added (see methodology below), giving final concentrations tested in the range of 128-0.5 μg/ml.
Antifungal susceptibility studies and minimal inhibitory concentrations (MIC) values for Candida albicans (ATCC no. 10231) and Candida glabrata (ATCC no. 48435) were determined by the broth microdilution technique in accordance with NCCLS reference documents. Microdilution panels ranged from 0.5 to 128 μg/mL. All organisms were subcultured on Sabouraud agar and passaged to ensure purity and viability. The initiating inocula were prepared by picking 5-7 isolated colonies ˜1 mm in diameter from freshly prepared YM agar plates. […] Growth was scored visually. […]

[7] = YPG 3% glycerol or YPE 3% ethanol versus YPD 2% glucose, pH 6.5, 30° C., OD600nm
[8] = Table 5, Schiff Bases of 5-acylpyrimidinetriones
[9] = Table 7, Phenylhydrazones of 5-Acylpyrimidinetriones

| SMILES | MIC80 [1] [µg/mL] | MIC80 [2] [µg/mL] | reduction in cell viability [3] [%] | MIC80 C. glabrata [2, 8] | inhibition of fungal growth (in words) [6] | other results |
| --- | --- | --- | --- | --- | --- | --- |
| C/C(=N\Nc1ccc([N+](=O)[O-])cc1)C1C(=O)NC(=O)NC1=O [BA25, 5-{(1E)-1-[2-(4-Nitrophenyl)hydrazinylidene]ethyl}pyrimidine-2,4,6-trione] | 2 (≈ 6.55 µM) | 2 (≈ 6.55 µM) | ~35 |  |  |  |
| C/C(=N\Nc1ccccc1)C1C(=O)N(C)C(=O)N(C)C1=O [BA78, 1,3-dimethyl-5-[(1E)-1-(2-phenylhydrazinylidene)ethyl]pyrimidine-2,4,6-trione] | 2 (≈ 6.94 µM) | 2 (≈ 6.94 µM) | ~35 |  |  |  |
| O=C1NC(=O)C(/C=N/Nc2ccc([N+](=O)[O-])cc2)C(=O)N1 [BA22, 5-{(E)-[2-(4-nitrophenyl)hydrazinylidene]methyl}pyrimidine-2,4,6-trione] | 2 (≈ 6.87 µM) | 1 (≈ 3.43 µM) |  |  |  | activity when Candida growth depends upon non-fermentable carbon sources ([4]; FIG. 2A, 24 hours, 30° C., % growth relative to DMSO control): enhanced; concentrations of BA22 required to inhibit the growth, glycerol or ethanol versus glucose [4, 7]: much lower; activity when Candida growth depends upon non-fermentable carbon sources ([5]; FIG. 2B, 24 hours, 30° C., % growth relative to DMSO control): enhanced; concentrations of BA22 required to inhibit the growth, glycerol or ethanol versus glucose [5, 7]: much lower; C. albicans colony formation (C. albicans): significantly delayed in a dose dependent manner, eventually forming small colonies |
| CN1C(=O)C(C=Nc2ccccc2O)C(=O)N(C)C1=O [BA94] |  |  | ~35 | — (none of the 5-acyl-2,4,6-pyrimidinetriones, 5-alkylated pyrimidinetriones or the 5,5-dialkylated pyrimidinetriones showed antifungal activity through 125 μg/mL) |  | inhibitory activity of Candida albicans ([1]; Schiff base derivatives, Table 5): showed inhibitory activity; MIC80 C. albicans ([1]; Table 5, values marked *: compound displayed MIC with <50% inhibition): 8* μg/mL |
| CN1C(=O)C(C=Nc2cccc(O)c2)C(=O)N(C)C1=O [BA95] |  |  |  | — (none of the 5-acyl-2,4,6-pyrimidinetriones, 5-alkylated pyrimidinetriones or the 5,5-dialkylated pyrimidinetriones showed antifungal activity through 125 μg/mL) | inactive | MIC80 C. albicans [1, 8]: — (none of the 5-acyl-2,4,6-pyrimidinetriones, 5-alkylated pyrimidinetriones or the 5,5-dialkylated pyrimidinetriones showed antifungal activity through 125 μg/mL) |
| O=C1NC(=O)C(C=Nc2cccc(O)c2)C(=O)N1 [BA96] |  |  |  | — (none of the 5-acyl-2,4,6-pyrimidinetriones, 5-alkylated pyrimidinetriones or the 5,5-dialkylated pyrimidinetriones showed antifungal activity through 125 μg/mL) | inactive | MIC80 C. albicans [1, 8]: — (none of the 5-acyl-2,4,6-pyrimidinetriones, 5-alkylated pyrimidinetriones or the 5,5-dialkylated pyrimidinetriones showed antifungal activity through 125 μg/mL) |
| CC(=NNc1ccc([N+](=O)[O-])cc1)C1C(=O)NC(=O)N(c2ccccc2)C1=O (centres unmarked) [BA28] |  |  |  |  | greatly reduced inhibition | MIC80 C. albicans [1, 9]: 31.5 µg/mL (≈ 82.6 µM); MIC80 C. glabrata [2, 9]: 16 µg/mL (≈ 42 µM) |
